This assay addresses human O-GlcNAcase (Homo sapiens (Human), UniProt O60502). The experiment in a line: Assay for determination of KI values for inhibition of O-GlcNAcase activity (fluorescence-based hOGA). It is filed as biochemical. To be noted: purified human O-GlcNAcase, 4-Methylumbelliferyl N-acetyl-β-D-glucosaminide substrate, pH 7.0, Cheng-Prusoff. On the procedure:
Enzymatic reactions were carried out in a reaction containing 50 mM NaH2PO4, 100 mM NaCl and 0.1% BSA (pH 7.0) using 2 mM 4-Methylumbelliferyl N-acetyl-β-D-glucosaminide dihydrate (Sigma M2133) dissolved in ddH2O, as a substrate. The amount of purified human O-GlcNAcase enzyme used in the reaction was 0.7 nM. Test compound of varying concentrations was added to the enzyme prior to initiation of the reaction. The reaction was performed at room temperature in a 96-well plate and was initiated with the addition of substrate. The production of fluorescent product was measured every 60 sec for 45 min with a Tecan Infinite M200 plate-reader with excitation at 355 nm and emission detected at […], with 4-Methylumbelliferone (Sigma M1381) used to produce a standard curve. The slope of product production was determined for each concentration of compound tested and plotted, using standard curve fitting algorithms for sigmoidal dose response curves. The values for a four parameter logistic curve fit of the data were determined.
KI values were determined using the Cheng-Prusoff equation; the Km of O-GlcNAcase for substrate was 0.2 mM.

Consider one molecule from patent US9522883B2, “Glycosidase inhibitors and uses thereof” (Alectos Therapeutics Inc., priority 2012, dated 2016).

human O-GlcNAcase, sequence (O60502 whole entry): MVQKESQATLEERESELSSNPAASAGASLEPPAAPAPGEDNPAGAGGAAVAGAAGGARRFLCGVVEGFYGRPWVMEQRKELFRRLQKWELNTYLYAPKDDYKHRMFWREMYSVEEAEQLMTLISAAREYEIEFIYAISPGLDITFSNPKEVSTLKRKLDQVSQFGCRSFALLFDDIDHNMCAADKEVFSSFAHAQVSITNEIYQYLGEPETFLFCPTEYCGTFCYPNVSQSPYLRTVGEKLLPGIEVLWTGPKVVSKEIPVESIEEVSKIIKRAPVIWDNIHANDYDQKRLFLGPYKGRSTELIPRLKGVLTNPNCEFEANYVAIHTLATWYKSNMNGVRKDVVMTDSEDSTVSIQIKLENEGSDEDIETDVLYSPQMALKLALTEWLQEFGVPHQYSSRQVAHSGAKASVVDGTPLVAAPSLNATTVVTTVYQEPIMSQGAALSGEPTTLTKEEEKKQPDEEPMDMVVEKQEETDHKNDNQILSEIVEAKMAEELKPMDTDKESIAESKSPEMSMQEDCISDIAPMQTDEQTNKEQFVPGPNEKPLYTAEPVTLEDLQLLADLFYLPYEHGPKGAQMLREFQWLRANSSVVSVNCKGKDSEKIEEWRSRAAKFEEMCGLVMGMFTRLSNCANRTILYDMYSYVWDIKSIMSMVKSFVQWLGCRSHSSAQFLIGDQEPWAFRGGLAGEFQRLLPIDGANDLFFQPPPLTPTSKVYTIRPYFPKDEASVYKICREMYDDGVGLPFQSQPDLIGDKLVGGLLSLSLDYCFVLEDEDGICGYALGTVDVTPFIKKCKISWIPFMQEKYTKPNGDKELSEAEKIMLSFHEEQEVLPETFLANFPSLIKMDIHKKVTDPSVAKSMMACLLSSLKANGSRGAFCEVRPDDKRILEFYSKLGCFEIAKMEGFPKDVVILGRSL

As usually defined, the Ki is the dissociation constant of the complex between target and ligand, obtained from inhibition or displacement. Read a low Ki as tighter binding. `CC(=O)N[C@H]1CN(CCCCc2ccccc2)[C@H](CO)[C@@H](O)[C@@H]1O` [Example 1, N-((3S,4R,5R,6R)-4,5-dihydroxy-6-(hydroxymethyl)-1-(4-phenylbutyl)piperidin-3-yl)acetamide] yielded a Ki of 2580 nM.
